From publication PMC4194234 (Psychopharmacology, 2014)
Like-named read-outs stand apart in the source and are kept apart here.

Columns and labels:
5-HT2A receptor [1] = target: T1, 5-HT2A receptor (Homo sapiens, UniProt P28223); assay: cell-based; type: cell-based; conditions: for Emax: CHO-K1, read-out: 5-HT2A β-arrestin Emax; for 5-HT2A β-arrestin recruitment activity (in words) / 5-HT2A β-arrestin Emax: CHOk1; for 5-HT2A β-arrestin recruitment activity (in words): screened at 10 µM; for 5-HT2A β-arrestin Emax: β-arrestin recruitment, mean ± SEM, three experiments in duplicate
Target sequence in this assay (P28223 whole entry): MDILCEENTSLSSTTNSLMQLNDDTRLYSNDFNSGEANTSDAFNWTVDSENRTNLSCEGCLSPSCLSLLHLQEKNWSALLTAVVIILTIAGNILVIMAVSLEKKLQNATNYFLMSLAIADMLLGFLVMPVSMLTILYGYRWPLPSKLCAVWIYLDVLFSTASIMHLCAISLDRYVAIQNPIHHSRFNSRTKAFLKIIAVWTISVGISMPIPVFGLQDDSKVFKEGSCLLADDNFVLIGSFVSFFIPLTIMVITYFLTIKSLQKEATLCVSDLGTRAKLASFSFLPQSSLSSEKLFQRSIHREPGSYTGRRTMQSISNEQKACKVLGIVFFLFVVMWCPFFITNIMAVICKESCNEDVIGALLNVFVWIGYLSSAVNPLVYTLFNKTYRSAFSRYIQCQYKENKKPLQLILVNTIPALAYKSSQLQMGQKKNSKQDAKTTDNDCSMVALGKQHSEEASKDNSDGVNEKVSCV
Target sequence in this assay (P32121 whole entry, further chain): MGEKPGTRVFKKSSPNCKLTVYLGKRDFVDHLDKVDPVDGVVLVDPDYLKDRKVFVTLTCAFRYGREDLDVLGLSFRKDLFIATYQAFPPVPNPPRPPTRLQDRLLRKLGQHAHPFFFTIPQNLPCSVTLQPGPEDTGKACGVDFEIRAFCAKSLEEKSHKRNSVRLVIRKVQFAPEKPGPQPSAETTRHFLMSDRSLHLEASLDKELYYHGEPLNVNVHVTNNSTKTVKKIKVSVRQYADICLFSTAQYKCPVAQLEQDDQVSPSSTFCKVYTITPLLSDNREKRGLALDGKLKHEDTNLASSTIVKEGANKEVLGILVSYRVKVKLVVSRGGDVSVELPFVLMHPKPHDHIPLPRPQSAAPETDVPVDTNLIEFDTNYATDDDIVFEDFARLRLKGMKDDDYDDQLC

humans = conditions: tabulated from anecdotal reports in TiHKAL, ref Shulgin and Shulgin 1997; cited from earlier work
SERT [2] = target: T2, SERT (Rattus norvegicus, UniProt P31652); assay: SERT-mediated release, rat brain synaptosomes; conditions: for 5-HT releasing activity at SERT (in words): rat brain synaptosomes
T2 sequence (P31652 whole entry): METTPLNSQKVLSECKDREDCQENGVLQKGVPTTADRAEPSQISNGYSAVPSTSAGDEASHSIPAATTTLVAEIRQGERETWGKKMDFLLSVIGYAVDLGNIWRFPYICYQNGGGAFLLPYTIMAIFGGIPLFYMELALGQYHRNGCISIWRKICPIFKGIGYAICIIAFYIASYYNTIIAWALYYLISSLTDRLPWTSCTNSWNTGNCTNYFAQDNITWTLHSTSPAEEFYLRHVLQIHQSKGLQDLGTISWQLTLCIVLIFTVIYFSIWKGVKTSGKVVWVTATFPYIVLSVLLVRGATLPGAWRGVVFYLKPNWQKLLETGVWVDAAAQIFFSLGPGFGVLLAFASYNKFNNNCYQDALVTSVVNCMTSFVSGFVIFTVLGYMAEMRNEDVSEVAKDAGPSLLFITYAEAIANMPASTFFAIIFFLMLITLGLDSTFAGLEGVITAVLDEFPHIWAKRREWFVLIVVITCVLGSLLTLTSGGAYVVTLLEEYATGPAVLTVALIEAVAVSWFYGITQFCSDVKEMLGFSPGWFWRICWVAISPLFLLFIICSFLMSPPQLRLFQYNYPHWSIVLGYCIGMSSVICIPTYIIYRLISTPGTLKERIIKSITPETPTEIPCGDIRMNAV

5-HT2A receptor [3] = target: T1, 5-HT2A receptor; assay: cell-based; type: cell-based; conditions: for Emax: HEK293, read-out: 5-HT2A Emax; for 5-HT2A agonist activity in calcium mobilization assay (in words) / 5-HT2A Emax: HEK293; for 5-HT2A Emax: calcium mobilization, mean ± SEM, three experiments in duplicate
Target sequence in this assay (P28223 whole entry): as the sequence (P28223 whole entry) above

[4] = target: T3, Dopamine Transporter (DAT) (Rattus norvegicus, UniProt P23977); assay: DAT-mediated release, rat striatum synaptosomes
T3 sequence (P23977 whole entry): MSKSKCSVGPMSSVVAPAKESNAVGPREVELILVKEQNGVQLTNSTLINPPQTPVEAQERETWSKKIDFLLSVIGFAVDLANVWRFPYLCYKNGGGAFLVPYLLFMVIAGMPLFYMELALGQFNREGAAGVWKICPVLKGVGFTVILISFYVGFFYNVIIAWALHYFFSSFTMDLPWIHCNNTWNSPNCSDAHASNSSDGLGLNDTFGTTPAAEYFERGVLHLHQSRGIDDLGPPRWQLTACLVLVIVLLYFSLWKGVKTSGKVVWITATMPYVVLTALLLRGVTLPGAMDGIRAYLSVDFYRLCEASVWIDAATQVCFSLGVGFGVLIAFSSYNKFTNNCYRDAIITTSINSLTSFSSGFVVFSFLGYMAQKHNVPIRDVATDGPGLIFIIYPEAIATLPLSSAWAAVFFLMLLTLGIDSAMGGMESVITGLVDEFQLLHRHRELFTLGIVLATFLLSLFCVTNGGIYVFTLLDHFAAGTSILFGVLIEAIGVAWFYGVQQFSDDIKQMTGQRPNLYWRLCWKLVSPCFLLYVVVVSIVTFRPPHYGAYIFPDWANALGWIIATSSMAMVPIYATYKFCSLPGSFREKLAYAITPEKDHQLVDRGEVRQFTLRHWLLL

5-HT1A receptor = target: T4, 5-HT1A receptor (Homo sapiens, UniProt P08908); assay: 5-HT1A calcium mobilization assay in Gα16-CHO cells; type: cell-based; conditions: for 5-HT1A Emax: calcium mobilization, Gα16-CHO, mean ± SEM, three experiments in duplicate
T4 sequence (P08908 1-422): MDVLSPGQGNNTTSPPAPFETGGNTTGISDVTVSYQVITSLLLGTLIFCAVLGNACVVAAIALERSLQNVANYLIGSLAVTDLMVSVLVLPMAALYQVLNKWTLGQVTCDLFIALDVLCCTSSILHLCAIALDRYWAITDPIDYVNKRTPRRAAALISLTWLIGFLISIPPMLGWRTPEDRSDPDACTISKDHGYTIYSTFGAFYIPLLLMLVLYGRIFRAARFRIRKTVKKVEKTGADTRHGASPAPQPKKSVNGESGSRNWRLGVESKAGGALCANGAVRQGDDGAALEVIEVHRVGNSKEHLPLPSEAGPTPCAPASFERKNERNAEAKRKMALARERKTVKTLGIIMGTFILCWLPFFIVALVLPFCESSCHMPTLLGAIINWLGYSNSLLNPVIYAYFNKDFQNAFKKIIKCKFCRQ

[5] = target: T5, Norepinephrine Transporter (NET) (Rattus norvegicus, UniProt Q63380); assay: NET-mediated release, rat brain synaptosomes; type: biochemical
T5 sequence (Q63380 1-617): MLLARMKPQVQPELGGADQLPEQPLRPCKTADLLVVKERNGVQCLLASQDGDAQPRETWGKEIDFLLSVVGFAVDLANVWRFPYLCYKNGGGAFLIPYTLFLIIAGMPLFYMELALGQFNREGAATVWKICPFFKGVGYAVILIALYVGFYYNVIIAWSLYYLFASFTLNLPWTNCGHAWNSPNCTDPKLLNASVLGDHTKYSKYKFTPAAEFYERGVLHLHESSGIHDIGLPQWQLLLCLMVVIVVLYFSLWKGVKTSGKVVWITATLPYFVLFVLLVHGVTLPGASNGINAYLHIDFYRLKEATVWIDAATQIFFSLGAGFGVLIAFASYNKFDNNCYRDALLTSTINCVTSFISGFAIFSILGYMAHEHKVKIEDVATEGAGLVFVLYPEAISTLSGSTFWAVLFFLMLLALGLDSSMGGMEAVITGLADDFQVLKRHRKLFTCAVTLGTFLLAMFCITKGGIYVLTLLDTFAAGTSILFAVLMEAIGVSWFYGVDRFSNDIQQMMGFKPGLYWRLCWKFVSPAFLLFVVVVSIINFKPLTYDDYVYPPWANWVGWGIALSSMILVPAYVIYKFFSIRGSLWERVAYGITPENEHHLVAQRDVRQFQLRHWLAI

[6] = target: T3, Dopamine Transporter (DAT); assay: [3H]DA uptake inhibition, rat striatum synaptosomes
SERT [7] = target: T2, SERT; assay: [3H]5-HT uptake inhibition, rat brain synaptosomes; conditions: for 5-HT uptake inhibitor activity at SERT (in words): rat brain synaptosomes
[8] = target: T5, Norepinephrine Transporter (NET); assay: [3H]NE uptake inhibition, rat brain synaptosomes; type: biochemical

With NCCc1c[nH]c2ccccc12 [Compound 12, Tryptamine] as the compound, how does the Emax (5-HT2A receptor [1]) read?
Its Emax is 108 ± 16%.

What about the “Psychoactive Effects” value (humans) of the same compound?
Its value is “Psychoactive, short acting due to metabolism, increased blood pressure, similar to LSD”.

And the “5-HT releasing activity at SERT (in words)” value (SERT [2])?
The value was “releasers”.

For CCNCCc1c[nH]c2ccc(OC)cc12 [Compound 18, 5-methoxy-N-ethyltryptamine], which EC50 (5-HT2A receptor [1]) is on record?
Its EC50 is 0.568 ± 0.174 µM.

What about the Emax (5-HT2A receptor [1]) of the same compound?
The Emax was 103 ± 12%.

What about the “5-HT2A β-arrestin recruitment activity (in words)” value (5-HT2A receptor [1]) of the same compound?
Its value is “fully efficacious”.

What about the Emax (5-HT2A receptor [3]) of the same compound?
Its Emax is 112 ± 3%.

And the EC50 [4]?
The EC50 was > 10 µM.

What about the EC50 (5-HT1A receptor) of the same compound?
Its EC50 is 0.262 ± 0.027 µM.

And the EC50 [5]?
The EC50 was > 10 µM.

What about the EC50 (SERT [2]) of the same compound?
The EC50 was 0.284 ± 0.0416 µM.

What about the “5-HT releasing activity at SERT (in words)” value (SERT [2]) of the same compound?
Its value is “releasers”.

With CN(C)CCc1c[nH]c2cccc(O)c12 [Compound 24, Psilocin] as the compound, how does the “Psychoactive Effects” value (humans) read?
The value was “Very visual, lots of colors, better at night”.

And the Emax (5-HT2A receptor [3])?
Its Emax is 76 ± 7%.

And the IC50 [6]?
The IC50 was > 10 µM.

What about the IC50 (SERT [7]) of the same compound?
The IC50 was 0.662 ± 0.041 µM.

What about the IC50 [8] of the same compound?
The IC50 was > 10 µM.

Which results are given for COc1ccc2[nH]cc(CCN(C)C)c2c1 [Compound 7, N,N-dimethyl-5-methoxytryptamine]?
Emax (5-HT2A receptor [1]): 56 ± 6%; Psychoactive Effects (humans): Time distortions, stoned feeling, hallucinogenic at high doses; 5-HT2A agonist activity in calcium mobilization assay (in words) (5-HT2A receptor [3]): low nanomolar potency; Emax (5-HT2A receptor [3]): 101 ± 4%; IC50 [6]: > 10 µM; IC50 (SERT [7]): 2.18 ± 0.222 µM; 5-HT1A Emax (5-HT1A receptor): 68 ± 3%; IC50 [8]: > 10 µM

What does the source list for CNCCc1c[nH]c2ccc(OC)cc12 [Compound 17]?
5-HT2A β-arrestin Emax (5-HT2A receptor [1]): 66 ± 9%; 5-HT2A Emax (5-HT2A receptor [3]): 84 ± 20%; 5-HT1A Emax (5-HT1A receptor): 72 ± 4%; 5-HT releasing activity at SERT (in words) (SERT [2]): releasers

What does the source list for CC(C)N(C)CCc1c[nH]c2ccccc12 [Compound 23]?
Psychoactive Effects (humans): Mild hallucinations, stimulant, fast onset, psychedelic; 5-HT2A Emax (5-HT2A receptor [3]): 74 ± 5%; 5-HT uptake inhibitor activity at SERT (in words) (SERT [7]): totally inactive

For CC(C)NCCc1c[nH]c2ccccc12 [Compound 20], which “Psychoactive Effects” value (humans) is on record?
The value was “Light-headed intoxicant, pleasant buzz”.

What about the “5-HT2A Emax” value (5-HT2A receptor [3]) of the same compound?
The value was 96 ± 3%.

With CN(C)CCc1c[nH]c2ccccc12 [Compound 6, N,N-dimethyltryptamine] as the compound, how does the EC50 (5-HT2A receptor [1]) read?
The EC50 was > 10 µM.

What about the “5-HT2A β-arrestin recruitment activity (in words)” value (5-HT2A receptor [1]) of the same compound?
Its value is “inactive”.

What about the “Psychoactive Effects” value (humans) of the same compound?
Its value is “Heavy intoxicant and hallucinogen, visuals, intense colors”.

And the Emax (5-HT2A receptor [3])?
Its Emax is 83 ± 0.4%.

What about the EC50 [4] of the same compound?
Its EC50 is > 10 µM.

And the EC50 [5]?
The EC50 was 4.17 ± 0.317 µM.

What about the EC50 (SERT [2]) of the same compound?
The EC50 was 0.114 ± 0.015 µM.

For CCCN(CCC)CCc1c[nH]c2ccccc12 [Compound 21], which “5-HT2A β-arrestin Emax” value (5-HT2A receptor [1]) is on record?
The value was 63 ± 8%.

What about the “Psychoactive Effects” value (humans) of the same compound?
The value was “Intensely visual, long lasting, things appear fast, religious experiences”.

What about the “5-HT2A Emax” value (5-HT2A receptor [3]) of the same compound?
The value was 97 ± 3%.

With COc1ccc2[nH]cc(CCN(C)C(C)C)c2c1 [Compound 2, N-isopropyl-N-methyl-5-methoxytryptamine] as the compound, how does the EC50 (5-HT2A receptor [1]) read?
Its EC50 is 0.566 ± 0.11 µM.

And the Emax (5-HT2A receptor [1])?
The Emax was 82 ± 13%.

What about the “Psychoactive Effects” value (humans) of the same compound?
The value was “Fast onset, stimulates conceptual thought, depersonalization”.

And the “5-HT2A agonist activity in calcium mobilization assay (in words)” value (5-HT2A receptor [3])?
Its value is “low nanomolar potency”.

What about the Emax (5-HT2A receptor [3]) of the same compound?
The Emax was 101 ± 3%.

What about the IC50 [6] of the same compound?
Its IC50 is > 10 µM.

And the IC50 (SERT [7])?
Its IC50 is > 10 µM.

What about the “5-HT uptake inhibitor activity at SERT (in words)” value (SERT [7]) of the same compound?
Its value is “totally inactive”.

What about the EC50 (5-HT1A receptor) of the same compound?
Its EC50 is > 10 µM.

And the IC50 [8]?
The IC50 was > 10 µM.

With COc1ccc2[nH]cc(CCN)c2c1 [Compound 25] as the compound, how does the “Psychoactive Effects” value (humans) read?
The value was “Not particularly active, possibly due to metabolism similar to 12”.

And the “5-HT1A Emax” value (5-HT1A receptor)?
The value was 66 ± 4%.

For CC(C)N(CCc1c[nH]c2ccccc12)C(C)C [Compound 22], which “Psychoactive Effects” value (humans) is on record?
The value was “Auditory, not visual, heard voices, sounds had “golden spikes”, religious overtones”.

What about the “5-HT2A Emax” value (5-HT2A receptor [3]) of the same compound?
The value was 110 ± 2%.

With CCN(CC)CCc1c[nH]c2ccc(OC)cc12 [Compound 26] as the compound, how does the “5-HT2A β-arrestin Emax” value (5-HT2A receptor [1]) read?
Its value is 64 ± 8%.

And the “Psychoactive Effects” value (humans)?
Its value is “Auditory changes, negative experiences, anxiety”.

What about the “5-HT2A agonist activity in calcium mobilization assay (in words)” value (5-HT2A receptor [3]) of the same compound?
Its value is “low nanomolar potency”.

And the “5-HT2A Emax” value (5-HT2A receptor [3])?
The value was 101 ± 0.8%.

What about the “5-HT1A Emax” value (5-HT1A receptor) of the same compound?
Its value is 67 ± 2%.

With CCN(CC)CCc1c[nH]c2ccccc12 [Compound 19] as the compound, how does the “Psychoactive Effects” value (humans) read?
The value was “Psychoactive, visuals, vertigo”.

What about the “5-HT2A Emax” value (5-HT2A receptor [3]) of the same compound?
Its value is 90 ± 6%.

What about the “Fold more potent at SERT uptake inhibition than 5-MeO-DET” value (SERT [7]; DET versus 5-MeO-DET (26)) of the same compound?
The value was 10 fold.

With COc1ccc2[nH]cc(CCN(C(C)C)C(C)C)c2c1 [Compound 1, N,N-diisopropyl-5-methoxytryptamine] as the compound, how does the Emax (5-HT2A receptor [1]) read?
Its Emax is 124 ± 12%.

And the “Psychoactive Effects” value (humans)?
Its value is “Erotic, senses distorted, short-lived, could not make intuitive leaps”.

And the “5-HT2A agonist activity in calcium mobilization assay (in words)” value (5-HT2A receptor [3])?
Its value is “low nanomolar potency”.

What about the Emax (5-HT2A receptor [3]) of the same compound?
The Emax was 109 ± 5%.

What about the IC50 [6] of the same compound?
Its IC50 is > 10 µM.

What about the IC50 (SERT [7]) of the same compound?
The IC50 was 0.646 ± 0.048 µM.

And the EC50 (5-HT1A receptor)?
Its EC50 is > 10 µM.

And the IC50 [8]?
Its IC50 is > 10 µM.

For CC(N)Cc1c[nH]c2ccccc12 (stereo not drawn) [Compound 13], which “Psychoactive Effects” value (humans) is on record?
Its value is “Psychedelic but varied, fast/slow onset, good/bad experiences, long lasting, no visuals, speed-like, tachycardia, jaw clenching”.

Which results are given for CNCCc1c[nH]c2ccccc12 [Compound 14, N-methyltryptamine]?
EC50 (5-HT2A receptor [1]): > 10 µM; 5-HT2A β-arrestin recruitment activity (in words) (5-HT2A receptor [1]): inactive; EC50 (5-HT1A receptor): > 10 µM

Which “5-HT2A β-arrestin Emax” value (5-HT2A receptor [1]) does the source give for COc1ccc2[nH]cc(CCNC(C)C)c2c1 [Compound 27] here?
The value was 99 ± 6%.

And the “5-HT2A agonist activity in calcium mobilization assay (in words)” value (5-HT2A receptor [3])?
Its value is “low nanomolar potency”.

What about the “5-HT2A Emax” value (5-HT2A receptor [3]) of the same compound?
The value was 101 ± 2%.

With CCCN(CCC)CCc1c[nH]c2ccc(OC)cc12 [Compound 28] as the compound, how does the “5-HT2A β-arrestin Emax” value (5-HT2A receptor [1]) read?
The value was 68 ± 2%.

And the “Psychoactive Effects” value (humans)?
Its value is “Comfortable at low doses, oscillating good and bad sounds, negative side dominated as buzz continues”.

What about the “5-HT2A agonist activity in calcium mobilization assay (in words)” value (5-HT2A receptor [3]) of the same compound?
The value was “low nanomolar potency”.

What about the “5-HT2A Emax” value (5-HT2A receptor [3]) of the same compound?
The value was 101 ± 3%.

What about the “5-HT1A Emax” value (5-HT1A receptor) of the same compound?
Its value is 43 ± 5%.

With CN(C)CCc1c[nH]c2ccc(O)cc12 [Compound 16, N,N-dimethyl-5-hydroxytryptamine] as the compound, how does the “Psychoactive Effects” value (humans) read?
The value was “Some visuals (lines and dots), tightness in chest, nausea, breathing issues, mind feels crowded”.

And the EC50 [4]?
The EC50 was > 10 µM.

What about the EC50 (5-HT1A receptor) of the same compound?
The EC50 was 0.366 ± 0.067 µM.

And the EC50 [5]?
Its EC50 is > 10 µM.
